Source: patent US20250235457A1, “METHODS AND COMPOSITIONS FOR TREATING CDKL5 DISORDER USING ALLOPURINOL” (priority 2024, published 2025)

Columns and labels:
CDKL5-deficient mice [1] = assay: Hind limb clasping test; type: in vivo; details: Het CDKL5-deficient mice before vs after treatment, 5 and 10 days oral (FIG. 9)
Description: The hind limb clasping test was performed to assess motor function and neurological impairments in CDKL5-deficient mouse models before and after treatment with allopurinol. […] Mice were suspended by their tails for a duration of 2 minutes, and hind limb retraction behavior (referred to as clasping) was recorded. Video recordings were analyzed to determine total clasping time during the test. Each mouse was evaluated using a standardized scoring system based on the severity of hind limb clasping behavior: • 0. No limb clasping observed. • 1.
Testing was conducted at baseline (pre-treatment) and at 5 and 10 days following oral administration of allopurinol. The hind limb clasping scores were averaged for each group, and the results were analyzed to assess changes in motor impairments following treatment.

CDKL5 Het female mice = assay: Seizure monitoring (video and EEG) in CDKL5 Het female mice; type: in vivo; details: 30 mg/kg/day in drinking water, treated vs untreated controls
Description: A p-value of <0.05 was considered statistically significant.

[2] = system: phosphorylation of key synaptic proteins, including EB2 (MAPRE2); assay: Neuronal cultures derived from CDKL5-deficient models; type: cell-based
[3] = system: EB2 (MAPRE2) phosphorylation at phospho-Serine 222; assay: Western blot of EB2 phosphorylation in brain tissue of CDKL5-deficient mice; details: 10 days
CDKL5-deficient mice [4] = assay: Marble burying test
[5] = system: pediatric patients diagnosed with CDKL5 disorder; assay: Prospective open-label clinical trial in pediatric patients with CDKL5 disorder; type: in vivo, human
Description: For the clinical trial, a prospective, open-label study was conducted between Aug. 1, 2023, and May 1, 2024, to evaluate the efficacy of allopurinol in pediatric patients diagnosed with CDKL5 disorder. The trial enrolled eight patients, aged 2 to 10 years, with a confirmed diagnosis of CDKL5 disorder and ongoing epilepsy that was resistant to conventional anti-epileptic drugs. Patients were required to have a stable seizure regimen for at least four weeks prior to participation. Those with a history of severe allergic reactions to allopurinol or other contraindicating medical conditions were excluded from the study. All patients were treated with allopurinol as an adjunct therapy to their existing anti-epileptic drug regimen, with the starting dose set at 10 mg/kg/day, administered orally in divided doses (twice daily, BID). The dosage was adjusted based on individual tolerability, and all treatment was closely supervised by a pediatric neurologist specializing in seizure disorders. Seizure frequency and severity were assessed at baseline and then at 4-week intervals throughout the 9-month study period. The primary endpoint of the study was the reduction in the frequency of major motor seizures, which was assessed using patient diaries and caregiver reports. Secondary endpoints included the severity of seizures (measured by the Modified Rankin Scale), overall neurological improvement, and quality of life, evaluated using the CDKL5 Disorder Disease-Specific Quality of Life (CDKL5-QoL) questionnaire. Statistical analysis was performed using paired t-tests to compare seizure frequency data between baseline and post-treatment periods, with a significance level set at p<0.05.

[6] = 1:10 solution of DMSO:PBS (pH 7.2); 'believed to be approximately'; cited from earlier work
CDKL2 = assay: qPCR of CDKL2 expression in the treated patient; type: in vivo, human
[7] = system: CDKL2 and GluN2B subunits in the hippocampal and cortical regions; assay: Histological / immunohistochemical analysis of brain tissue of CDKL5 Het mice; type: in vivo; details: treated animals, 30 mg/kg/day
Description: In addition to the clinical trial, a preclinical animal study was conducted using a mouse model of CDKL5 disorder (CDKL5 Het female mice). A total of eight mice were included in the study, with four receiving treatment and four serving as untreated controls. All mice were housed under standard laboratory conditions with a 12-hour light/dark cycle and ad libitum access to food and water. The treatment protocol involved the oral administration of allopurinol dissolved in drinking water at a target dose of 30 mg/kg/day. The solution was prepared in phosphate-buffered saline (PBS) with a concentration of 0.1 mg/mL allopurinol in a 1:10 solution of dimethyl sulfoxide (DMSO):PBS (pH 7.2). Control animals received an identical solution without allopurinol. Seizure activity was monitored daily throughout the study, with seizure severity and duration recorded using both video and electroencephalogram assessments. At the end of the study, brain tissue from both treated and untreated animals was collected for histological analysis, specifically to assess the expression of CDKL2 and GluN2B subunits in the hippocampal and cortical regions. Immunohistochemical staining was used to visualize the localization and abundance of these proteins. Data from the seizure monitoring were analyzed using an unpaired t-test, and histological data were quantified using image analysis software. […]

[8] = system: patient with CDKL5 deficiency disorder (CDD); assay: Off-label allopurinol treatment of a pediatric patient with CDD (case); type: in vivo, human
Description: CDD is a severe neurodevelopmental disorder characterized by treatment-resistant epilepsy, profound developmental delays, and significant motor impairments.
The patient presented with severe developmental delays since birth and had never met motor or speech milestones. […] The patient also experienced frequent, uncontrolled seizures despite being on a ketogenic diet and receiving physical, occupational, speech, and vision therapies. Their seizures were refractory to multiple anti-epileptic drugs (AEDs), including Keppra, Epidiolex, Soticlestat, Clonazepam, Sabril, Phenobarbital, and Oxcarbazepine.
Baseline assessments conducted prior to treatment initiation included a review of medical history, physical examination, laboratory tests, and functional evaluations.
Allopurinol was prescribed as an adjunct therapy to the patient's existing seizure management regimen without modifications to their ongoing AED treatments or dietary plan. The treatment protocol involved administering allopurinol at a dose of 100 mg per day, divided into two doses of 50 mg with lunch and 50 mg with dinner. The patient's progress was monitored over a 24-week period, unless adverse events necessitated an adjustment or discontinuation of the treatment. Caregivers maintained a daily diary to document seizure frequency, duration, and type, as well as changes in behavior, communication attempts, motor abilities, urine output, and general health.
Clinical assessments were conducted every four weeks, either virtually or in-person, to monitor safety and efficacy. Laboratory tests were performed every six weeks to evaluate uric acid levels, urinalysis, complete blood count (“CBC”), blood sugar levels, and other relevant indicators. EEG assessments were conducted at baseline, at eight-week intervals, and at the end of the study to evaluate changes in seizure activity and brain function. Regular evaluations by a pediatric neuro-ophthalmologist were included to assess visual and neurological health.
During the study, therapeutic interventions such as speech therapy, physical therapy, and the use of augmentative and alternative communication (AAC) devices were continued. Specific goals included improving functional communication through AAC, enhancing motor control, and increasing engagement with therapy activities. Progress in these areas was tracked alongside clinical outcomes to assess the comprehensive impact of allopurinol on the patient's quality of life.
At the time of treatment initiation, the patient weighed 18 kg. […] The end-of-study assessment included a final medical evaluation, EEG, laboratory tests, and a review of therapy outcomes to measure the safety and efficacy of allopurinol as a treatment for CDD.

[9] = 100 mg per day, 24-week study period

## Oc1ncnc2[nH]ncc12 [allopurinol]
CDKL5-deficient mice [1]
  hind limb clasping behavior: significant reduction in hind limb clasping behavior
CDKL5 Het female mice
  reduction in seizure duration: 65%
  reduction in seizure severity: 72.5%
[2]
  phosphorylation of key synaptic proteins, including EB2 (MAPRE2): increased phosphorylation
[3]; Het female mice brain, 30 mg/kg/day, vs untreated controls, not statistically significant (FIG. 2)
  phosphorylated EB2 isoforms 1 and 2 at ps222: trend towards increased phosphorylation
[3]; Het female mice brain, 30 mg/kg/day, did not reach statistical significance (FIG. 3)
  phosphorylated EB2 isoform 3 at ps222: trend toward increased phosphorylation
[3]; KO male and Het female mice, 30 mg/kg/day in drinking water
  EB2 phosphorylation levels: increased EB2 phosphorylation levels
CDKL5-deficient mice [4]; Het mice treated vs untreated Het mice, 30 mg/kg/day oral (FIG. 8)
  marble burying capacity: improvement in marble burying capacity
CDKL5-deficient mice [4]; inferred from the behavioral findings in CDKL5-deficient mice
  crossing of the blood brain barrier: crosses the blood brain barrier
[5]; 10 mg/kg/day
  patients demonstrating a decrease in seizure severity by at least one grade (Modified Rankin Scale): 75 % of patients
  patients reporting improvements in sleep patterns, motor skills, and cognitive function (CDKL5-QoL): 87.5 % of patients
[5]; clinical trial conclusions
  speech and motor delays: did not show marked improvements
[5]; eight patients aged 2 to 10 years, 10 mg/kg/day oral BID adjunct, 9 months, baseline on average 12 times per week
  mean reduction in major motor seizures: 63.2%
[6]
  solubility: approximately 0.1 mg/ml
CDKL2; control group mean 5.44307×10^−6 (±2.26749×10^−6)
  patient's CDKL2 expression level: 1.7356×10^−5 (±1.302×10^−6)
CDKL2; treated patient compared to healthy donor controls
  increase in the expression of CDKL2 vs healthy donor controls: 3 fold
[7]
  CDKL2 expression in the hippocampal and cortical regions: notable increase in CDKL2 expression
  GluN2B subunit mislocalization: partially corrected
[8]; 100 mg per day adjunct, with a reduction in epileptic discharges
  EEG background activity: marked improvement
[8]; [9]
  adverse effects: No adverse effects were reported
  tolerability: well tolerated
[8]; 3 months after treatment, before treatment 1, lower desirable
  CDKL5 Severity Scale Part 3 (Caregiver Report): 0
[8]; 3 months after treatment, before treatment 2, higher desirable
  CDKL5 Severity Scale Part 6 (Motor Skills): 4
[8]; 3 months after treatment, before treatment 25, lower desirable
  CDKL5 Severity Scale Part 4 (Clinician Report): 25
[8]; 3 months after treatment, before treatment 29, lower desirable
  CDKL5 Severity Scale Part 2 (Seizure Activity): 29
[8]; 3 months after treatment, before treatment 32, lower desirable
  CDKL5 Severity Scale Part 1 (General Health): 21
[8]; 3 months after treatment, before treatment 104
  CDKL5 Severity Scale Total Score: 69
[8]; 3 months after treatment, before treatment −1, higher desirable
  CDKL5 Severity Scale Part 5 (Behavioral Skills): 8
[8]; person, 100 mg per day adjunct, after 3 months
  seizure status: completely seizure-free
[8]; qualitative observational data
  quality of life (observational): reduced sleep disturbances, improved saliva control, and decreased caregiver burden
[8]; therapist and caregiver observation
  cognitive and motor functions: notable gains in cognitive and motor functions
